Measured values as given in patent publication US20260049076A1, “Tertiary Amine Substituted Bicyclic Compounds Useful as T Cell Activators” (BRISTOL-MYERS SQUIBB COMPANY, priority 2022, published 2026).
pIC50: −log10 of the molar value.

How the values were obtained:
human DGKα = target: T1, human DGKα (Homo sapiens, UniProt P23743); test: In vitro DGK inhibition assay, DGKα liposome (LIPGLO) assay; format: biochemical; conditions: read-out: Enzyme Inhibition DGKalpha IC50
T1 construct: TVMV protease cleavage site (C); Hexa-His (C); made in house; host or cells: Sf9 insect cells (baculovirus)
T1 sequence (P23743 with tags, fused parts or gaps): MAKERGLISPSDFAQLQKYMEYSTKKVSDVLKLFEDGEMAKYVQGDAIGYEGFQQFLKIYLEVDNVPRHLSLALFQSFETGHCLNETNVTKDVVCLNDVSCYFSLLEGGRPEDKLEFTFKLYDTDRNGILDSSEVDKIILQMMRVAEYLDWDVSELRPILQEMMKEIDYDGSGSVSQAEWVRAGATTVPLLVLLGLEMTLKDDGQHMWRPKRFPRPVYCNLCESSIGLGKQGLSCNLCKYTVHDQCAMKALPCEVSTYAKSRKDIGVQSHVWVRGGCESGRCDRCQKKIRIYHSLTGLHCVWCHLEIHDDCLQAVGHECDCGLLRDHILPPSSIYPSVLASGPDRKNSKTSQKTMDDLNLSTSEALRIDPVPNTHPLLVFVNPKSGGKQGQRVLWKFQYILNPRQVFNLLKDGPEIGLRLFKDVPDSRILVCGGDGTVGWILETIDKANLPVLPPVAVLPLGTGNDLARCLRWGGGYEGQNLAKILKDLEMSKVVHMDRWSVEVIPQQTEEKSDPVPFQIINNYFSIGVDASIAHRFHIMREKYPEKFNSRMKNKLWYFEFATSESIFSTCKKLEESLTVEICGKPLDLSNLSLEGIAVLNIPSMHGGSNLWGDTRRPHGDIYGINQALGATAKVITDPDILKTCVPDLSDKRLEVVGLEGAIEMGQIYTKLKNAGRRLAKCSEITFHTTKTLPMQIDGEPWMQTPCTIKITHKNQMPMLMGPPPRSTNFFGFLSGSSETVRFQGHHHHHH
Experimental: (§1) The DGKα and DGKζ reactions were performed using either extruded liposome (DGKα and DGKζ LIPGLO assays) or detergent/lipid micelle substrate (DGKα and DGKζ assays). The reactions were carried out in 50 mM MOPS pH 7.5, 100 mM NaCl, 10 mM MgCl2, 1 μM CaCl2, and 1 mM DTT (assay buffer). The reactions using a detergent/lipid micelle substrate also contained 50 mM octyl B-D-glucopyranoside. The lipid substrate concentrations were 11 mM PS and 1 mM DAG for the detergent/lipid micelle reactions. The lipid substrate concentrations were 2 mM PS, 0.25 mM DAG, and 2.75 mM PC for the extruded liposome reactions (5 mM total lipid). The reactions were carried out in 150 μM ATP The enzyme concentrations for the DGKα and DGKζ were 5 nM
(§2) The compound inhibition studies were carried out as follows: 25 nL (ADPGLO assay) or 50 nL (LIPGLO assay) droplets of each test compound (top concentration 10 mM with 11 point, 3-fold dilution series for each compound) solubilized in DMSO were transferred to wells of a white 1536 well plate (Corning 3725). A 5 mL enzyme/lipid substrate solution at 2× final reaction concentration was prepared by combining 2.5 mL 4× enzyme solution (20 nM DGKα, or DGKζ (prepared as described below) in assay buffer) and 2.5 mL of either 4× liposome or 4× detergent/lipid micelle solution (compositions described below) and incubated at room temperature for 10 minutes. Next, 1 μL 2× enzyme/lipid substrate solution was added to wells containing the test compound and reactions were initiated with the addition of 1 μL 300 uM ATP. The reactions were allowed to proceed for 2 hr (ADPGLO assay) or 1 hr (LIPGLO assay), after which 2 μL Glo Reagent (Promega V9101) was added and incubated for 40 minutes. Next, 4 μL Kinase Detection Reagent was added and incubated for 30 minutes. Luminescence was recorded using an EnVision microplate reader. […] The compounds were evaluated at 11 concentrations to determine IC50.
(§3) The lipid composition was 5 mol % DAG (Avanti 8008110), 40 mol % PS (Avanti 840035P), and 55 mol % PC (Avanti 850457) at a total lipid concentration of 7-8 mg/mL for the liposome solution. The PC, DAG, and PS were dissolved in chloroform, combined, and dried in vacuo to a thin film. The lipids were hydrated to 20 mM in 50 mM MOPS pH 7.5, 100 mM NaCl, 5 mM MgCl2, and were freeze-thawed five times. The lipid suspension was extruded through a 100 nm polycarbonate filter 10-12 times. […] The liposome preparation was stored at 4° C. for as long as four weeks.
as §3, with “15.2” for “7-8”, “the 4×” for “the”, “eleven” for “10-12”
(§4) Human DGK-alpha-TVMV-His-pFBgate and human DGK-zeta-transcript variant-2-TVMV-His-pFBgate baculovirus samples were generated using the Bac-to-Bac baculovirus expression system (Invitrogen) according to the manufacturer's protocol. […] Baculovirus amplification was achieved using infected Sf9 cells at 1:1500 virus/cell ratios, and grown for 65 hours at 27° C. post-transfection.
(§5) The expression scale up for each protein was carried out in the Cellbag 50L WAVE-Bioreactor System 20/50 from GE Healthcare Bioscience. 12 L of 2×10^6 cells/mL Sf9 cells (Expression System, Davis, CA) grown in ESF921 insect medium (Expression System) were infected with virus stock at 1:200 virus/cell ratios, and grown for 66-68 hours at 27° C. post-infection.

human DGKζ = target: T2, human DGKζ (Homo sapiens, UniProt Q13574); test: In vitro DGK inhibition assay, DGKζ liposome (LIPGLO) assay; format: biochemical; conditions: read-out: Enzyme Inhibition DGKzeta IC50
T2 construct: TVMV protease cleavage site (C); Hexa-His (C); made in house; host or cells: Sf9 insect cells (baculovirus)
T2 sequence (Q13574 with tags, fused parts or gaps isoform Q13574-4): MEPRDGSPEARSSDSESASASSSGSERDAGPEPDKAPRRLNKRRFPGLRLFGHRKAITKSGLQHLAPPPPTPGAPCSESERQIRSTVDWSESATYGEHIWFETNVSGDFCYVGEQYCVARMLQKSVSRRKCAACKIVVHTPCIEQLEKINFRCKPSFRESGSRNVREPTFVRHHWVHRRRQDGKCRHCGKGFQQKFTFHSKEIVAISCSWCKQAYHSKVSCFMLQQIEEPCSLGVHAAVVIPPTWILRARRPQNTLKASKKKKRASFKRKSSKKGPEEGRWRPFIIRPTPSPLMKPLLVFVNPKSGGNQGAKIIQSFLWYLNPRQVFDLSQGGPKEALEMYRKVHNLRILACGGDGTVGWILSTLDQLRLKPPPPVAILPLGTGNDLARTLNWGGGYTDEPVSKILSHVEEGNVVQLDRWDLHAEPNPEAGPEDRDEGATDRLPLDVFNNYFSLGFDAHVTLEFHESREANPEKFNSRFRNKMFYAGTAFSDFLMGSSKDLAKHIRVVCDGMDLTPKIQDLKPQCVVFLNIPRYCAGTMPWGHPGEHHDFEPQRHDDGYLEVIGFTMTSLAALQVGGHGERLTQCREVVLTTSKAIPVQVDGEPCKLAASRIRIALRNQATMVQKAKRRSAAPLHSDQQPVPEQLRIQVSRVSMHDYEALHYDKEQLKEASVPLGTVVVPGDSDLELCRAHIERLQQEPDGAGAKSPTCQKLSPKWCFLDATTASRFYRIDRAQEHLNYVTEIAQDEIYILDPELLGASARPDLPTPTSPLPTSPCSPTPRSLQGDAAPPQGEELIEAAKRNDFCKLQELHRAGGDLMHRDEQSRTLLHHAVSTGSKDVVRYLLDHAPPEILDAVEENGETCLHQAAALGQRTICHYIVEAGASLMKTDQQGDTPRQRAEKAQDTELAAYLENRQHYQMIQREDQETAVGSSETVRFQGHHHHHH
Experimental: as §1, §2, §3
as §3, with “15.2” for “7-8”, “the 4×” for “the”, “eleven” for “10-12”
as §4, §5

| SMILES | pIC50 (human DGKα) | pIC50 (human DGKζ) |
| --- | --- | --- |
| CN(C)C(=O)c1cccc(-c2cccc(N(CC3CC3)c3cc(=O)n(C)c4ccc(C#N)nc34)c2)c1 [Example 108, 3′-((6-cyano-1-methyl-2-oxo-1,2-dihydro-1,5-naphthyridin-4-yl)(cyclopropylmethyl)amino)-N,N-dimethyl-[1,1′-biphenyl]-3-carboxamide] | 4.36 | 5.43 |
| CN(c1ccc(C(F)(F)F)cc1)c1cc(=O)n(C)c2ccc(C#N)nc12 [Example 33, 5-methyl-8-(methyl(4-(trifluoromethyl)phenyl)amino)-6-oxo-5,6-dihydro-1,5-naphthyridine-2-carbonitrile] | 5.21 | 5.39 |
| CN(C)C(=O)c1cccc(-c2ccc(N(CC3CC3)c3cc(=O)n(C)c4ccc(C#N)nc34)cc2)c1 [Example 88, 4′-((6-cyano-1-methyl-2-oxo-1,2-dihydro-1,5-naphthyridin-4-yl)(cyclopropylmethyl)amino)-N,N-dimethyl-[1,1′-biphenyl]-3-carboxamide] | 5.49 | 6.06 |
| Cc1ccc2c(n1)c(N(C)C1CCCCC1)c(C#N)c(=O)n2C [Example 13, 4-[cyclohexyl(methyl)amino]-1,6-dimethyl-2-oxo-1,2-dihydro-1,5-naphthyridine-3-carbonitrile] | 6.54 | 5.57 |
| Cn1c(=O)cc(N(Cc2ccccc2)CC2CC2)c2nc(C#N)ccc21 [Example 52, 8-(benzyl(cyclopropylmethyl)amino)-5-methyl-6-oxo-5,6-dihydro-1,5-naphthyridine-2-carbonitrile] | 5.35 | 4.92 |
| Cc1ccc(-c2ccc(N(CC3CC3)c3cc(=O)n(C)c4ccc(C#N)nc34)cc2)cc1 [Example 69, 8-((cyclopropylmethyl)(4′-methyl-[1,1′-biphenyl]-4-yl)amino)-5-methyl-6-oxo-5,6-dihydro-1,5-naphthyridine-2-carbonitrile] | 5.26 | 5.12 |
| CN(C)c1ccc(-c2cccc(N(CC3CC3)c3cc(=O)n(C)c4ccc(C#N)nc34)c2)cc1 [Example 107, 8-((cyclopropylmethyl)(4′-(dimethylamino)-[1,1′-biphenyl]-3-yl)amino)-5-methyl-6-oxo-5,6-dihydro-1,5-naphthyridine-2-carbonitrile] | 7.66 | 5.70 |
| Cc1ccccc1-c1cccc(N(CC2CC2)c2cc(=O)n(C)c3ccc(C#N)nc23)c1 [Example 93, 8-((cyclopropylmethyl)(2′-methyl-[1,1′-biphenyl]-3-yl)amino)-5-methyl-6-oxo-5,6-dihydro-1,5-naphthyridine-2-carbonitrile] | 5.38 | 5.04 |
| Cc1cccc(-c2ccc(N(CC3CC3)c3cc(=O)n(C)c4ccc(C#N)nc34)cc2)c1 [Example 74, 8-((cyclopropylmethyl)(3′-methyl-[1,1′-biphenyl]-4-yl)amino)-5-methyl-6-oxo-5,6-dihydro-1,5-naphthyridine-2-carbonitrile] | 5.21 | 5.82 |
| Cn1c(=O)cc(N(CC2CC2)c2cccc(-c3ccccc3Cl)c2)c2nc(C#N)ccc21 [Example 97, 8-((2′-chloro-[1,1′-biphenyl]-3-yl)(cyclopropylmethyl)amino)-5-methyl-6-oxo-5,6-dihydro-1,5-naphthyridine-2-carbonitrile] | 5.72 | 5.10 |
| Cc1ccccc1N(CC1CC1)c1cc(=O)n(C)c2ccc(C#N)nc12 [Example 49, 8-((cyclopropylmethyl)(o-tolyl)amino)-5-methyl-6-oxo-5,6-dihydro-1,5-naphthyridine-2-carbonitrile] | 5.32 | 4.25 |
| Cn1c(=O)nc(N(CC2CC2)c2ccc(C3CC3)cc2)c2nc(Cl)ccc21 [Example 58, 6-chloro-4-((cyclopropylmethyl) (4-cyclopropylphenyl)amino)-1-methylpyrido[3,2-d]pyrimidin-2(1H)-one] | 5.42 | 6.00 |
| C#CCn1c(=O)c(C#N)c(N(C)C2CCCCC2)c2nc(C#N)ccc21 [Example 17, 8-[cyclohexyl(methyl)amino]-6-oxo-5-(prop-2-yn-1-yl)-5,6-dihydro-1,5-naphthyridine-2,7-dicarbonitrile] | 5.70 | 5.44 |
| Cn1c(=O)cc(N(CC2CC2)c2cccc(C(F)(F)F)c2)c2nc(C#N)ccc21 [Example 47, 8-((cyclopropylmethyl)(3-(trifluoromethyl)phenyl)amino)-5-methyl-6-oxo-5,6-dihydro-1,5-naphthyridine-2-carbonitrile] | 6.70 | 5.29 |
| Cn1c(=O)nc(N(CC2CC2)c2ccc(C3CC3)cc2)c2nc(C#N)ccc21 [Example 57, 4-((cyclopropylmethyl)(4-cyclopropylphenyl)amino)-1-methyl-2-oxo-1,2-dihydropyrido[3,2-d]pyrimidine-6-carbonitrile] | 5.38 | 6.82 |
| Cn1c(=O)cc(N(CC2CC2)c2cccc(-c3cccc(Cl)c3)c2)c2nc(C#N)ccc21 [Example 94, 8-((3′-chloro-[1,1′-biphenyl]-3-yl) (cyclopropylmethyl)amino)-5-methyl-6-oxo-5,6-dihydro-1,5-naphthyridine-2-carbonitrile] | 5.60 | 5.04 |
| Cc1ccccc1-c1ccc(N(CC2CC2)c2cc(=O)n(C)c3ccc(C#N)nc23)cc1 [Example 75, 8-((cyclopropylmethyl)(2′-methyl-[1,1′-biphenyl]-4-yl)amino)-5-methyl-6-oxo-5,6-dihydro-1,5-naphthyridine-2-carbonitrile] | 5.48 | 6.06 |
| Cn1c(=O)cc(N(CC2CC2)c2ccc(-c3cccc(O)c3)cc2)c2nc(C#N)ccc21 [Example 81, 8-((cyclopropylmethyl)(3′-hydroxy-[1,1′-biphenyl]-4-yl)amino)-5-methyl-6-oxo-5,6-dihydro-1,5-naphthyridine-2-carbonitrile] | 5.42 | 5.43 |
| Cc1ccccc1N(C)c1cc(=O)n(C)c2ccc(C#N)nc12 [Example 26, 5-methyl-8-(methyl(o-tolyl)amino)-6-oxo-5,6-dihydro-1,5-naphthyridine-2-carbonitrile] | 6.02 | 4.43 |
| CN(C)C(=O)c1ccc(-c2cccc(N(CC3CC3)c3cc(=O)n(C)c4ccc(C#N)nc34)c2)cc1 [Example 101, 3′-((6-cyano-1-methyl-2-oxo-1,2-dihydro-1,5-naphthyridin-4-yl)(cyclopropylmethyl)amino)-N,N-dimethyl-[1,1′-biphenyl]-4-carboxamide] | 6.03 | 4.89 |
| Cn1c(=O)cc(N(CC2CC2)c2cccc(-c3ccc(C(N)=O)cc3)c2)c2nc(C#N)ccc21 [Example 103, 3′-((6-cyano-1-methyl-2-oxo-1,2-dihydro-1,5-naphthyridin-4-yl)(cyclopropylmethyl)amino)-[1,1′-biphenyl]-4-carboxamide] | 6.92 | 5.70 |
| COc1ccc(N(C)c2cc(=O)n(C)c3ccc(C#N)nc23)cc1 [Example 24, 8-((4-methoxyphenyl)(methyl)amino)-5-methyl-6-oxo-5,6-dihydro-1,5-naphthyridine-2-carbonitrile] | 6.19 | 5.49 |
